Measured values taken from patent EP0911330B1, “1-(4-Arylpiperazine-1-y1)-3-(2-oxopyrrolidin/piperidin-1-y1) propanes as therapeutic agents for hypertension, ischemia, cardiovascular and other adrenergic receptors related disorders” (Council of Scientific & Industrial Research, priority 1997, dated 1999).

Key:
[1] = test system: Isolated Guinea pig ileum preparation; assay: Isolated guinea pig ileum, antihistaminic activity; details: 0.5-5.0 ug/ml
[2] = test system: Langendorffs perfused rat heart preparation; assay: Langendorff perfused rat heart, chronotropic effect
[3] = test system: histamine induced bronchoconstriction; assay: Konzett and Rossler preparation, histamine induced bronchoconstriction; format: in vivo
Spinal transected cat = assay: Site of action: spinal transected cat, blood pressure; format: in vivo; details: dose 2-10 umol/kg i.d.
[4] = test system: Langendorff perfused rat heart preparation; assay: Cardioprotective activity, Langendorff perfused rat heart, prolonged ischemic insult, compound given at reperfusion
Experimental: Further, in Langendorff perfused rat heart preparation subjected to even upto 90 min. global ischemia, the compound at 0.001 ug/ml conc. given at the time of reperfusion revived normal rhythmic contraction started within 2 min. (Table 1) and incidence of reperfusion induced arrhythmia were abolished. Table 1: Compound administered at the time of reperfusion at the dose of 0.001 ug/ml on prolong period (90 min.) of ischemic insult.
(§1) The rats were killed by decapitation, heart were rapidly excised and placed in ice-cold HEPES tyrode buffer. Then isolated hearts were perfused retrogradely through coronary arteries using the Langendorff technique. The perfusion buffer consisted (in mM) NaCl 137, KCl 5.4, CaCl2 1.8, MgCl2 1.0, glucose 11.2 and HEPES 3.0. The buffer (pH 7.4) was continuously gassed with oxygen and maintained at 37°C. Coronary flow rate was maintained at 10 ml/min. The heart contracted spontaneously.
(§2) The perfused heart was allowed to equilibrate for 30 min. before initiation of any insult protocol. The text compounds were given at the time of reperfusion. Some of the compounds were dissolved in ethanol. Final concentration of ethanol in the perfusion buffer was 0.0001% and had no effect of its own on the parameter used. • (a) For brief period of ischemic insult (Hideo et al.). Pathophysiology and pathogenesis of stunned myocardium. J. Clin. Invest., 79, 950-961, 1987). Ischemia was initiated by stopping the flow for 16 min. followed by 30 min. reperfusion period. The durations were decided on the initial pilot experiments leading to 50% recovery of function. • (b) For prolong period of ischemic insult (Becker, L.C. & Ambrosio, G. Myocardial consequences of reperfusion. Prog. Cardiovas. Dis., 30, 23-44, 1987). Ischemia was initiated by stopping the flow for […]. followed by 30 min. reperfusion.

Acute toxicity (LD50) = details: mouse, in vivo, Mice
cat [5] = assay: Drug antagonism studies of the antihypertensive effect in cat; format: in vivo; details: 2 uMol dose i.v.
[6] = test system: Normotensive rat model preparation; assay: Effect on blood pressure, heart rate and adrenaline vasopressor response, anaesthetized normotensive rat; format: in vivo
Experimental: (§3) 2. Effect on blood pressure, heart rate and adrenaline vasopressor response of anaesthetized (pentobarbitone sodium 40 & 60 mg/kg i.p. in cat and rat respectively) normotensive & hypertensive rat & cat model preparations.

Normotensive cat = assay: Effect on blood pressure, heart rate and adrenaline vasopressor response, anaesthetized normotensive cat; format: in vivo
Experimental: as §3
(§4) • (a) Cats (2.6-4.0 kg) of either sex anaesthetized with pentobarbitone sodium (40 mg/kg i.v.) and showing basal mean arterial blood pressure below 150 mm (Hg) were categorised as normotensive and above 150 mm Hg as hypertensive. Arterial blood pressure (BP) was recorded from one of the carotid artery through a stathum P23 DC pressure transducer and 7P1 low level DC preamplifier on a Grass Model P7 Polygraph, Signals from 7P1 preamplifier were used to trigger 7P4 Tachograph preamplifier for recording the heart rate (HR). Right femoral vein and Trachea were cannulated for intravenous injections and artificial ventilation respectively. Control responses to intravenous injection of noradrenaline (2-4 ug); acetyl choline (1-2 ug); histamine ([…]) and isoprenaline (1-2 ug) were taken before and after the administration of test doses of each compounds.

cat [7] = assay: Effect on blood pressure and adrenaline vasopressor response in anaesthetized cat, i.v. (Table 2); format: in vivo
Experimental: as §4

Rat hind limb perfusion = assay: Site of action: rat hind limb perfusion, flow; format: in vivo
cat [8] = assay: Comparative antihypertensive effect with clinically used antihypertensive drugs in cat; format: in vivo; details: 2 uMol/kg i.v.
From the text: (4) Comparative antihypertensive effect with clinically used antihypertensive drugs at 2 uMol/kg i.v. dose in cat

[9] = test system: Langendorff perfused rat heart; assay: Antiischemic activity, Langendorff perfused rat heart, brief (16 min.) ischemic insult, compound given at reperfusion (Table 3); details: 0.001 ug/ml at reperfusion
Experimental: Table 3: Compound administered at the time of reperfusion at a dose of 0.001 ug/ml on brief period (16 min.) of ischemic insult.
as §1, §2

[10] = Site of action: ICV administration, blood pressure; format: in vivo; details: dose 0.34-1.36 (column head: umol/kg i.d.)
[11] = test system: Rat aortic ring preparation; assay: Rat aortic ring preparation, NE induced contraction
Isolated aortic strip = assay: Isolated aortic strip, endothelin induced contraction
[12] = test system: Naturally occuring hypertensive cat; assay: Effect on blood pressure, heart rate and adrenaline vasopressor response, anaesthetized naturally hypertensive cat; format: in vivo
Experimental: as §3, §4

[13] = test system: Hypertensive rat model preparation; assay: Effect on blood pressure, heart rate and adrenaline vasopressor response, anaesthetized hypertensive rat model; format: in vivo
Experimental: 2. Effect on blood pressure, heart rate and adrenaline vasopressor response of anaesthetized (pentobarbitone sodium 40 & 60 mg/kg i.p. in cat and rat respectively) normotensive & hypertensive rat & cat model preparations. […]

[14] = up to 90 min. global ischemia, 0.001 ug/ml given at the time of reperfusion
[15] = dose 20 uMol/kg i.d., in beats/min (unit assumed)

O=C1CCCN1CCCN1CCN(c2ccc(F)cc2)CC1 [C6H4-4-F, n=1, 1-[4-(4-fluorophenyl)piperazin-1-yl]-3-[2-oxopyrrolidin-1-yl]propane]
antihistaminic activity [1]: significant antihistaminic activity
duration of negative chronotropic effect ([2]; 1 ug): 10 min
negative chronotropic effect ([2]; 1 ug): 30%
duration of negative chronotropic effect ([2]; 3 ug): 14 min
negative chronotropic effect ([2]; 3 ug): 26%
duration of negative chronotropic effect ([2]; 5 ug): 5 min
negative chronotropic effect ([2]; 5 ug): 5%
antihistaminic activity against histamine induced bronchoconstriction [3]: some antihistaminic activity
B.P. fall (Spinal transected cat): 14-18%
Dur. (Spinal transected cat): 15 to 30 min
Onset ([4]; 0.001 ug/ml at reperfusion, 90 min. ischemic insult): 4 min
incidence of reperfusion induced arrhythmia [4, 14]: abolished
time until normal rhythmic contraction started [4, 14]: ≤ 2 min
LD50 (Acute toxicity (LD50); ip): 147 mg/kg
LD50 (Acute toxicity (LD50); po): 562 mg/kg
reduction of the fall in blood pressure (cat [5]; glibenclamide pretreatment): only partially reduced
alteration of antihypertensive effect (cat [5]; pretreatment with atropine sulphate, mepyramine maleate, propranolol, or yohimbine): failed to alter
reduction of antihypertensive effect (cat [5]; pretreatment with captopril or Dup-753): 33%
reduction of antihypertensive effect (cat [5]; pretreatment with prazosin): 90%
reduction of antihypertensive effect (cat [5]; pretreatment with verapamil): 50%
B.P. fall ([6]; dose 2 uMol/kg i.v.): 25%
Dur. ([6]; dose 2 uMol/kg i.v.): 11 min
Heart rate Pre treatment ([6]; dose 2 uMol/kg i.v.): 350 beats/min
Heart rate post treatment ([6]; dose 2 uMol/kg i.v.): 370 beats/min
B.P. fall ([6]; dose 10 uMol/kg i.v.): 10%
Dur. ([6]; dose 10 uMol/kg i.v.): 3 min
Heart rate Pre treatment ([6]; dose 10 uMol/kg i.v.): 315 beats/min
Heart rate post treatment ([6]; dose 10 uMol/kg i.v.): 360 beats/min
B.P. fall ([6]; dose 20 uMol/kg i.v.): 21%
Dur. ([6]; dose 20 uMol/kg i.v.): 27.5 min
Heart rate Pre treatment ([6]; dose 20 uMol/kg i.v.): 315 beats/min
Heart rate post treatment ([6]; dose 20 uMol/kg i.v.): 285 beats/min
Adrenaline vasopressure response % inhibition (Normotensive cat; dose 10 uMol/kg i.d.): 26%
B.P. fall (Normotensive cat; dose 10 uMol/kg i.d.): 22%
Dur. (Normotensive cat; dose 10 uMol/kg i.d.): 85 min
Heart rate Pre treatment (Normotensive cat; dose 10 uMol/kg i.d.): 200 beats/min
Heart rate post treatment (Normotensive cat; dose 10 uMol/kg i.d.): 170 beats/min
Adrenaline vasopressure response % inhibition (Normotensive cat; dose 20 uMol/kg i.d.): 34.75%
B.P. fall (Normotensive cat; dose 20 uMol/kg i.d.): 21%
Dur. (Normotensive cat; dose 20 uMol/kg i.d.): >102.5 min
Heart rate Pre treatment (Normotensive cat; dose 20 uMol/kg i.d.): 185 beats/min
Heart rate post treatment (Normotensive cat; dose 20 uMol/kg i.d.): 165 beats/min
inhibition at 2 µmol/kg (cat [7]; Felis catus, iv, dose 2.0 umol/kg i.v., read-out: Adrenaline vasopressure response % inhibition): 9%
inhibition in vivo at 2 µmol/kg (cat [7]; Felis catus, iv, dose 2.0 umol/kg i.v., read-out: B.P. fall %): 25%
inhibition at 10 µmol/kg (cat [7]; Felis catus, iv, dose 10.0 umol/kg i.v., read-out: Adrenaline vasopressure response % inhibition): > 100%
inhibition in vivo at 10 µmol/kg (cat [7]; Felis catus, iv, dose 10.0 umol/kg i.v., read-out: B.P. fall %): 31%
Dur. (cat [7]; dose 2.0 umol/kg i.v.): 71 min
Dur. (cat [7]; dose 10.0 umol/kg i.v.): >112 min
Percent change in flow (Rat hind limb perfusion; total dose 10 ug): no effect
Percent change in flow (Rat hind limb perfusion; total dose 25 ug): +35 (Vasodilatation) Percent
Percent change in flow (Rat hind limb perfusion; total dose 50 ug): +50 (Vasodilatation) Percent
B.P. fall (cat [8]): 22%
Dur. (cat [8]): 25 min
Onset [9]: 1.5 min
B.P. fall [10]: 8-10%
Dur. [10]: 10 to 15 min
NE induced contraction [11]: inhibited
Endothelin induced contraction (Isolated aortic strip): inhibited significantly
Response to endothelin after washing the preparation (Isolated aortic strip; after washing): relaxation rather than contraction
Adrenaline vasopressure response % inhibition ([12]; dose 10 uMol/kg i.d.): 49%
B.P. fall ([12]; dose 10 uMol/kg i.d.): 16%
Dur. ([12]; dose 10 uMol/kg i.d.): 110 min
Heart rate Pre treatment ([12]; dose 10 uMol/kg i.d.): 195/195
Heart rate post treatment ([12]; dose 10 uMol/kg i.d.): 195/195
B.P. fall ([12]; dose 20 uMol/kg i.d.): 22%
Dur. ([12]; dose 20 uMol/kg i.d.): >156.75 min
Heart rate Pre treatment [12, 15]: 177
Heart rate post treatment [12, 15]: 185
Adrenaline vasopressure response % inhibition ([13]; dose 5 uMol/kg i.d.): 33%
B.P. fall ([13]; dose 5 uMol/kg i.d.): 27%
Dur. ([13]; dose 5 uMol/kg i.d.): 51 min
Heart rate Pre treatment ([13]; dose 5 uMol/kg i.d.): 346 beats/min
Heart rate post treatment ([13]; dose 5 uMol/kg i.d.): 320 beats/min
Adrenaline vasopressure response % inhibition ([13]; dose 10 uMol/kg i.d.): 23%
B.P. fall ([13]; dose 10 uMol/kg i.d.): 22%
Dur. ([13]; dose 10 uMol/kg i.d.): 76 min
Heart rate Pre treatment ([13]; dose 10 uMol/kg i.d.): 356 beats/min
Heart rate post treatment ([13]; dose 10 uMol/kg i.d.): 340 beats/min
Adrenaline vasopressure response % inhibition ([13]; dose 20 uMol/kg i.d.): 54%
B.P. fall ([13]; dose 20 uMol/kg i.d.): 29%
Dur. ([13]; dose 20 uMol/kg i.d.): 100 min
Heart rate Pre treatment ([13]; dose 20 uMol/kg i.d.): 310 beats/min
Heart rate post treatment ([13]; dose 20 uMol/kg i.d.): 275 beats/min
